We go through 6 molecules from patent publication US4035394A, “5-Phenyl-2-furanyl-oxo or-hydroxy alkanoic acids and ethyl esters as gastric acid antisecretory agents” (Morton-Norwich Products, Inc., priority 1976, dated 1977).

The assay concerns gastric acid secretion. As to the kind of experiment: modified standard pylorus-ligated secretory testing procedure in the rat. The assay is classed as in vivo, Sprague-Dawley rat. The conditions noted are these: 300 mg/kg p.o. suspension in 0.5% Methocel 1 hour prior to pylorus ligation, 4 hours after ligation; for % Inhibition Gastric Acid Output: titration to pH7, vs control; for % Inhibition Vol. of Gastric Secretion: vs control. As for the experimental part: Such effect is evidenced using a modified standard pylorus-ligated secretory testing procedure in the rat. Sprague-Dawley rats, weighing 180-210 g and previously fasted for 24 hours, were used. All compounds were given perorally as suspensions in 0.5% Methocel 1 hour prior to pylorus ligation. Under light ether anesthesia, the rat stomach was ligated at the pylorus region. Four hours after ligation the conscious rat was sacrificed by a chloroform overdose. The stomach was carefully excised and its content drained into a centrifuge tube. Samples were centrifuged to separate secretions from debris. Gastric fluid volume reading and determination of sample contamination, based on debris and sample color, was made. Titration was performed on a sample aliquot of 1 ml diluted to a volume of 5 ml using distilled water. The titrant used was 0.1N NaOH. Total gastric acid output in the stomach was determined by titration to pH7. A dose of 300 mg/kg p.o. of a compound was administered to a group of rats and its effect on the volume of gastric secretion and acid output compared to a control group receiving 0.5% Methocel p.o. The activity of each compound based on the degree of inhibition of gastric acid output is set forth in Table I.

For `CCOC(=O)CC(O)c1ccc(-c2ccc([N+](=O)[O-])cc2)o1` (stereo not drawn) [Example I, Ethyl 3-[5-(4-Nitrophenyl)-2-furanyl]-3-hydroxypropanoate], the “% Inhibition Gastric Acid Output” value is given as 43.1% and the “% Inhibition Vol. of Gastric Secretion” value is recorded as 33.17%.
Taken in the same sequence, the figures for `O=C(O)CCC(O)c1ccc(-c2ccc(Cl)cc2)o1` (stereo not drawn) [II, 4-[5-(4-Chlorophenyl)-2-furanyl]-4-hydroxybutanoic Acid] were 72.3% and 47.3%.
For `O=C(O)CC(O)c1ccc(-c2ccccc2Cl)o1` (stereo not drawn) [III, 3-[5-(2-Chlorophenyl)-2-furanyl]-3-hydroxypropanoic Acid] the same measures were 95.0% and 33.5%.
Taken in the same sequence, the figures for `O=C(O)CCC(=O)c1ccc(-c2ccc(Cl)cc2)o1` [IV, B] were 57.1% and 40.7%.
As for `O=C(O)CC(O)c1ccc(-c2ccc(Cl)cc2Cl)o1` (stereo not drawn) [V, 3-[5-(2,4-Dichlorophenyl)-2-furanyl]-3-hydroxypropanoic Acid], the “% Inhibition Gastric Acid Output” value is on record as 45.4% and the “% Inhibition Vol. of Gastric Secretion” value is given as 3.4%.
Taken in the same sequence, the figures for `CCOC(=O)CC(=O)c1ccc(-c2ccc(Cl)cc2)o1` [VI, B] were 50.0% and 19.8%.
